# Measurements from ChEMBL document CHEMBL4840347, “Design, synthesis, and biological evaluation of novel somatostatin receptor subtype-2 agonists: Optimization for potency and risk mitigation of hERG and phospholipidosis” (Bioorg Med Chem, 2021).
# Tests used:
# [1] = Cmax in rat at 3 mg/kg, po; assay type: ADME, organism-based; parameters: route oral, dose 3 mg/kg; settings: in vivo
# [2] = Tmax in rat at 3 mg/kg, po; assay type: ADME, organism-based; settings: in vivo
# [3] = AUC (0 to 24 hrs) in rat at 1 mg/kg, iv; assay type: ADME, organism-based; parameters: time < 24 hr, route intravenous, dose 1 mg/kg; settings: in vivo
# [4] = AUC (0 to 24 hrs) in rat at 3 mg/kg, po; assay type: ADME, organism-based; parameters: time < 24 hr, route oral, dose 3 mg/kg; settings: in vivo
# [5] = Half life in rat at 1 mg/kg, iv; assay type: ADME, organism-based; settings: in vivo
# [6] = Half life in rat at 3 mg/kg, po; assay type: ADME, organism-based; settings: in vivo
# [7] = Total clearance in rat at 1 mg/kg, iv; assay type: ADME, organism-based; settings: in vivo
# [8] = Volume of distribution in rat at 1 mg/kg, iv; assay type: ADME, organism-based; settings: in vivo, read-out: Vdss
# [9] = Oral bioavailability in rat at 3 mg/kg; assay type: ADME, organism-based; settings: in vivo
# [10] = Half life in rat liver microsomes measured up to 60 mins in presence of NADPH by LC-MS/MS analysis; assay type: ADME, Microsome
# [11] = Permeability of compound by PAMPA assay; assay type: ADME; settings: read-out: permeability
# [12] = Tmax in rat at 10 mg/kg, po; assay type: ADME, organism-based; settings: in vivo
# [13] = AUC (0 to 24 hrs) in rat at 10 mg/kg, po; assay type: ADME, organism-based; parameters: time < 24 hr, route oral, dose 10 mg/kg; settings: in vivo
# [14] = Half life in rat at 10 mg/kg, po; assay type: ADME, organism-based; settings: in vivo
# [15] = Oral bioavailability in rat at 10 mg/kg; assay type: ADME, organism-based; settings: in vivo
Cmax [1],Tmax [2],AUC(0-t) at 24 h [3],AUC(0-t) at 24 h [4],half-life [5],half-life [6],clearance [7],Vd [8],bioavailability [9],half-life [10],Papp [11],AUC ([3]; 24 h),Tmax [12],AUC [13],half-life [14],F [15],SMILES
32.1 ng/mL,2.3 h,264 ng·h/mL,271 ng·h/mL,366 min,336 min,60.7 mL/min/kg,23.2 L/kg,35.5%,> 200 min,41 ×10⁻⁶ cm/s,–,–,–,–,–,Cc1cc(C(=O)Nc2cncc(-c3cc(Cl)cc(Cl)c3)c2N2CCC(N)CC2)n(C)n1
56.6 ng/mL,0.5 h,–,291 ng·h/mL,348 min,390 min,25.1 mL/min/kg,8.23 L/kg,–,> 200 min,0.71 ×10⁻⁶ cm/s,686 ng·h/mL,30 min,291 ng·h/mL,390 min,42%,COc1cc(OC)cc(-c2cncc(-c3nc4cc(C)ccc4[nH]3)c2N2CCC(N)CC2)c1
